Experimental findings from patent US10570149B2, “Tricyclic heterocylic derivatives” (MERCK PATENT GMBH, priority 2016, dated 2020) are described below.

This experiment addresses T1, ATR/ATRIP (Homo sapiens, UniProt Q13535).
T1 construct: human ATR, full length, GenBank ID: NM_001184.3; p53: Sf21 insect cells
Briefly: ATR/ATRIP kinase assay (TR-FRET, p53 phosphorylation). It counts as biochemical. The note with it: Table 1, class symbols; read-out: ATR-ATRIP IC50. The procedure: ATR/ATRIP Kinase Assay—Measurement of ATR/ATRIP Inhibition
The IC50 value was determined by an ATR/ATRIP enzymatic assay. The assay comprises two steps: the enzymatic reaction and the detection step. First, a mixture of ATR/ATRIP protein (Ataxia Telangiectasia and Rad3-related protein/ATR interacting protein), the compound in question at different concentrations, p53 as substrate protein and adenosine triphosphate (ATP) are incubated in assay buffer. ATR phosphorylates p53 at Ser15 and other residues. The amount of phosphorylated p53 is then detected using specific antibodies and the TR-FRET assay technology.
In detail: The ATR/ATRIP enzymatic assay is performed as a TR-FRET-(HTRF™, Cisbio Bioassays) based 384-well assay. In a first step, purified human recombinant ATR/ATRIP (human ATR, full length, GenBank ID: NM_001184.3, and human ATRIP, full length, GenBank ID AF451323.1, co-expressed in a mammalian cell line) is incubated in assay buffer for 15 minutes at 22° C. with test compound at different concentrations or without test compound (as a negative control). The assay buffer contains 25 mM HEPES pH 8.0, 10 mM Mg(CH3COO)2, 1 mM MnCl2, 0.1% BSA, 0.01% Brij® 35, and 5 mM dithiothreitol (DTT). […] Then, in a second step, purified human recombinant cmyc-tagged p53 (human p53, full length, GenBank ID: BC003596, expressed in Sf21 insect cells) and ATP are added and the reaction mixture is incubated for 25-35 minutes, typically 25 minutes, at 22° C. The pharmacologically relevant assay volume is 5 μl. The final concentrations in the assay during incubation of the reaction mixture are 0.3-0.5 nM, typically 0.3 nM, ATR/ATRIP, 50 nM p53, and 0.5 μM ATP. The enzymatic reaction is stopped by the addition of EDTA. […] Following signal development for 2 h the plates are analyzed in an EnVision (PerkinElmer) microplate reader using the TRF mode with laser excitation. […] Data are processed employing the Genedata Screener software. In particular, IC50 values are determined in the usual manner by fitting a dose-response curve to the data points using nonlinear regression analysis.
For orientation: Time-resolved FRET reads energy transfer from a long-lived donor to a nearby acceptor.

T1 sequence (Q13535 whole entry): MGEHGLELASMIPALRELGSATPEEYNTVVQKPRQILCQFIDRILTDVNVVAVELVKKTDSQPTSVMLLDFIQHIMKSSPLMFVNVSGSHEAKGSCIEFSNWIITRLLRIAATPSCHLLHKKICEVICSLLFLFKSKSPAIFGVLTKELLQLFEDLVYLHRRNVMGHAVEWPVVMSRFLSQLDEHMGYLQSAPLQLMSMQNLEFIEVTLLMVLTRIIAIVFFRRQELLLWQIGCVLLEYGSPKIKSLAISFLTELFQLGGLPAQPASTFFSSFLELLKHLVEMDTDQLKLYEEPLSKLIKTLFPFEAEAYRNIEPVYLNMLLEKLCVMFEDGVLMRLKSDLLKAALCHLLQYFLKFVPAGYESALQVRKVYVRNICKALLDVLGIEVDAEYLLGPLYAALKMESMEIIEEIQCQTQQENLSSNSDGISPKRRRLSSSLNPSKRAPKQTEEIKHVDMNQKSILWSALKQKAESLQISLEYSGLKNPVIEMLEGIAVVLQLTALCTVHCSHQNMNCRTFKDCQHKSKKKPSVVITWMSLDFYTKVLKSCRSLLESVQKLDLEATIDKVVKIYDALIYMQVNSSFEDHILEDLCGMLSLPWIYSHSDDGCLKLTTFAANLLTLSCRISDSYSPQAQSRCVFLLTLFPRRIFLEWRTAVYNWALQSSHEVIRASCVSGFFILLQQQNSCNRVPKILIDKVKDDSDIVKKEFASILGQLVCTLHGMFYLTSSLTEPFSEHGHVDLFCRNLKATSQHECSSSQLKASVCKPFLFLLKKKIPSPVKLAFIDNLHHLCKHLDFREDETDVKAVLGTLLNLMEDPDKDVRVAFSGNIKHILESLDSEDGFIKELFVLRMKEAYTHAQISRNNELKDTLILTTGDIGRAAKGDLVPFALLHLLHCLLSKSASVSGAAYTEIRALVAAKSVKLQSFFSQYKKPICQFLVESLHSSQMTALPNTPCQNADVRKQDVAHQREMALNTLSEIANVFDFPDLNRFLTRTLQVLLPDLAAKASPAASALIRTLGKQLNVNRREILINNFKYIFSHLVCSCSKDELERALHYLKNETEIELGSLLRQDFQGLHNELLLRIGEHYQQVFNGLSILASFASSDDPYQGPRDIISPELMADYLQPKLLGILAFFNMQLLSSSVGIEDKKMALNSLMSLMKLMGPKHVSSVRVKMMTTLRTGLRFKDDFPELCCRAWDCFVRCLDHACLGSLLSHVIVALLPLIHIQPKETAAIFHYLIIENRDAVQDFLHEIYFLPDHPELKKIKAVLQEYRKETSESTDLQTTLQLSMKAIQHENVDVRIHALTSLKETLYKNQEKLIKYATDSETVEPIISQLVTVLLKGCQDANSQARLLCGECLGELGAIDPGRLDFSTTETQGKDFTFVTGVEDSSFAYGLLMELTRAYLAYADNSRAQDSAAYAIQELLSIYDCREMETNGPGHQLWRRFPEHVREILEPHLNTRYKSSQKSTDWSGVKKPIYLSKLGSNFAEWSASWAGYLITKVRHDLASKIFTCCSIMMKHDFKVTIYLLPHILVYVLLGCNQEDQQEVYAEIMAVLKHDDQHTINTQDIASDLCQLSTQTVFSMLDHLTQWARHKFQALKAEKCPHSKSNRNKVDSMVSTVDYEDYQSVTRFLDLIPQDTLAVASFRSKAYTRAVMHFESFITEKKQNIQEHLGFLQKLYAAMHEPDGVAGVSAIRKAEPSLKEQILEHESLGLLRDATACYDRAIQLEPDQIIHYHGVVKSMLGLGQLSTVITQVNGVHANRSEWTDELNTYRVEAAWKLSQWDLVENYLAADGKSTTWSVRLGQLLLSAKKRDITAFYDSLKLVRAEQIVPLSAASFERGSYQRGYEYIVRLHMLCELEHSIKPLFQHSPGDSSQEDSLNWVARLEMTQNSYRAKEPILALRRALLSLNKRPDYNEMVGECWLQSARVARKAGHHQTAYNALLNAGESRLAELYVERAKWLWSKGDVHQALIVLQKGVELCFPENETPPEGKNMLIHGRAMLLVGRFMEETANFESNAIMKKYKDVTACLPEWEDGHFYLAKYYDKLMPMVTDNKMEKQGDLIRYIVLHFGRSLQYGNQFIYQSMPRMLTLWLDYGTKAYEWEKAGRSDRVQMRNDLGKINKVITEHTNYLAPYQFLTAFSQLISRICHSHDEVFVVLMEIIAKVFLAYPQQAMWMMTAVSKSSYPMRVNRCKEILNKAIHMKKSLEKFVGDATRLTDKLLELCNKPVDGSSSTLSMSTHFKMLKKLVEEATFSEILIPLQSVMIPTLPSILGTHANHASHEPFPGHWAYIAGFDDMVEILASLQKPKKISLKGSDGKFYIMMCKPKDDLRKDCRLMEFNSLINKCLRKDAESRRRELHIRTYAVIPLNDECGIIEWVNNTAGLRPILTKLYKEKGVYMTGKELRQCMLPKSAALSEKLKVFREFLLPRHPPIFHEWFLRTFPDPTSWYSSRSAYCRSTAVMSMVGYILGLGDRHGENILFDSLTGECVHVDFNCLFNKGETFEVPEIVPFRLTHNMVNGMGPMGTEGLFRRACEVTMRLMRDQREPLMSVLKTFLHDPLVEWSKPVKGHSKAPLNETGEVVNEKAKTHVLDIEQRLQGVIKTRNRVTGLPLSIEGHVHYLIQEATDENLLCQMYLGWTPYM
T1 sequence (Q8WXE1 whole entry partner): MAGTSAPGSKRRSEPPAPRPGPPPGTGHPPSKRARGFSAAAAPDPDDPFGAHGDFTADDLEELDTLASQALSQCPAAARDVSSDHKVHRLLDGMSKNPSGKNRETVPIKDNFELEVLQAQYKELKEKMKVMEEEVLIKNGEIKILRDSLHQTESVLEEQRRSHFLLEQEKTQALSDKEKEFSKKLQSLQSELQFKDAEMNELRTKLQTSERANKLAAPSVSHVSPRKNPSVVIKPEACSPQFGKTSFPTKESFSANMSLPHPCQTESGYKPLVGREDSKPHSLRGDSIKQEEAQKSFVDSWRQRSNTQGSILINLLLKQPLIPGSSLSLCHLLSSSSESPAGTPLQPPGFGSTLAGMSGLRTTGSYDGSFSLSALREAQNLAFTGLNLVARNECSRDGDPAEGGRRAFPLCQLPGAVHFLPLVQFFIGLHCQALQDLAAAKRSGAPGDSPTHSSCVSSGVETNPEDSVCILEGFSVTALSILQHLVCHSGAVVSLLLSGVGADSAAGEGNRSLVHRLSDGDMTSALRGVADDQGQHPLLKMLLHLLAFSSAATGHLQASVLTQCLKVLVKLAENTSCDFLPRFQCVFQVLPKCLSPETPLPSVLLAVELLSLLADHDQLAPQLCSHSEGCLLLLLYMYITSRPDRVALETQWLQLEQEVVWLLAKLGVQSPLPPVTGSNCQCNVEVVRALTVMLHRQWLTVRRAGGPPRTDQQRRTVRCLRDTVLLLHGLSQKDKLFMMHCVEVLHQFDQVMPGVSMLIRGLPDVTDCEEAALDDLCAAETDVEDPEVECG

What is called IC50 is the midpoint of a concentration-inhibition curve. In the case of `C[C@@H]1COC[C@H]2COc3c(nc(C(=O)Nc4nnc[nH]4)nc3C(C)(C)S(C)(=O)=O)N21` [A55, (4bS,6R)-1-(1-methanesulfonyl-1-methyl-ethyl)-5-methyl-5,6,8a,9-tetrahydro-8H-7,10-dioxa-2,4,4b-triaza-phenanthrene-3-carboxylic Acid (4H-[1,2,4]triazol-3-yl)-amide], the IC50 was in the range of 10 to 100 nM.

`C[C@@H]1COC[C@H]2COc3c(nc(-c4ccc5ncccc5c4)nc3C(C)(C)S(C)(=O)=O)N21` [A77, (5R,8aS)-1-(1-methanesulfonyl-1-methyl-ethyl)-5-methyl-3-quinolin-6-yl-5,6,8a,9-tetrahydro-8H-7,10-dioxa-2,4,4b-triaza-phenanthrene]: the IC50 lay in the range of 10 to 100 nM.

With `C[C@@H]1COC[C@H]2COc3c(nc(-c4cncc(CO)c4)nc3C(C)(C)S(C)(=O)=O)N21` [A40, {5-[(5R,8aS)-1-(1-methanesulfonyl-1-methyl-ethyl)-5-methyl-5,6,8a,9-tetrahydro-8H-7,10-dioxa-2,4,4b-triaza-phenanthren-3-yl]-pyridin-3-yl}-methanol], the half-inhibitory concentration (IC50) was 1 to 10 nM.

As for `C[C@@H]1COC[C@H]2COc3c(nc(C(=O)Nc4ncccn4)nc3C(C)(C)S(C)(=O)=O)N21` [A58, (4bS,6R)-1-(1-methanesulfonyl-1-methyl-ethyl)-5-methyl-5,6,8a,9-tetrahydro-8H-7,10-dioxa-2,4,4b-triaza-phenanthrene-3-carboxylic Acid pyrimidin-2-ylamide], the IC50 was 500 to 30000 nM.

Take `CNc1nc2ccccc2n1-c1nc(Cn2cc(C(=O)O)nn2)c2c(n1)N1[C@@H](COC[C@H]1C)CO2` [A17, 1-[(5R,8aS)-5-Methyl-3-(2-methylamino-benzimidazol-1-yl)-5,6,8a,9-tetrahydro-8H-7,10-dioxa-2,4,4b-triaza-phenanthren-1-ylmethyl]-1H[1,2,3]triazole-4-carboxylic Acid]: the IC50 lay in the range of 100 to 500 nM.

Turning to `C[C@@H]1COC[C@H]2COc3c(nc(-c4ccc5ccncc5c4)nc3C(C)(C)S(C)(=O)=O)N21` [A76, (5R,8aS)-3-isoquinolin-7-yl-1-(1-methanesulfonyl-1-methyl-ethyl)-5-methyl-5,6,8a,9-tetrahydro-8H-7,10-dioxa-2,4,4b-triaza-phenanthrene], the IC50 is 10 to 100 nM.

As to `CNCc1c[nH]c2ncc(F)c(-c3nc4c(c(C(C)(C)O)n3)OC[C@@H]3COC[C@@H](C)N43)c12` [A5, 2-[(5R,8aS)-3-(5-Fluoro-3-methylaminomethyl-1H-pyrrolo[2,3-b]pyridin-4-yl)-5-methyl-5,6,8a,9-tetrahydro-8H-7,10-dioxa-2,4,4b-triaza-phenanthren-1-yl]-propan-2-ol], the IC50 lay in the range of 10 to 100 nM.

In the case of `C[C@@H]1COC[C@H]2COc3c(nc(N(C)c4nc5ccccc5[nH]4)nc3C(C)(C)O)N21` [A12, 2-{(5R,8aS)-3-[(1H-Benzimidazol-2-yl)-methyl-amino]-5-methyl-5,6,8a,9-tetrahydro-8H-7,10-dioxa-2,4,4b-triaza-phenanthren-1-yl}-propan-2-ol], the IC50 fell in the range of 10 to 100 nM.

Consider `C[C@@H]1COC[C@H]2COc3c(nc(C(=O)Nc4ccn[nH]4)nc3C(C)(C)S(C)(=O)=O)N21` [A47, (4bS,6R)-1-(1-methanesulfonyl-1-methyl-ethyl)-5-methyl-5,6,8a,9-tetrahydro-8H-7,10-dioxa-2,4,4b-triaza-phenanthrene-3-carboxylic Acid (2H-pyrazol-3-yl)-amide], for which the IC50 is 500 to 30000 nM.

Turning to `CNc1nc2ccccc2n1-c1nc(Cn2cc(C(=O)OC)nn2)c2c(n1)N1[C@@H](COC[C@H]1C)CO2` [A22, 1-[(5R,8aS)-5-Methyl-3-(2-methylamino-benzoimidazol-1-yl)-5,6,8a,9-tetrahydro-8H-7,10-dioxa-2,4,4b-triaza-phenanthren-1-ylmethyl]-1H[1,2,3]triazole-4-carboxylic Acid Methyl Ester], the IC50 was 10 to 100 nM.

Turning to `C[C@@H]1COC[C@H]2COc3c(nc(-c4ccc5cc(N)ncc5c4)nc3C(C)(C)S(C)(=O)=O)N21` [A66, 7-[(5R,8aS)-1-(1-methanesulfonyl-1-methyl-ethyl)-5-methyl-5,6,8a,9-tetrahydro-8H-7,10-dioxa-2,4,4b-triaza-phenanthren-3-yl]-isoquinolin-3-ylamine], the IC50 was in the range of 10 to 100 nM.

As to `COC(=O)c1cn(Cc2nc(-c3ccnc4[nH]ccc34)nc3c2OC[C@@H]2COC[C@@H](C)N32)nn1` [A18, 1-[(5R,8aS)-5-Methyl-3-(1H-pyrrolo[2,3-b]pyridin-4-yl)-5,6,8a,9-tetrahydro-8H-7,10-dioxa-2,4,4b-triaza-phenanthren-1-ylmethyl]-1H-[1,2,3]triazole-4-carboxylic Acid Methyl Ester], the half-maximal inhibitory concentration (IC50) lay within 1 to 10 nM.

Regarding `C[C@@H]1COC[C@H]2COc3c(nc(-c4ccc(C5(N)COC5)cc4)nc3C(C)(C)S(C)(=O)=O)N21` [A62, 3-{4-[(5R,8aS)-1-(1-methanesulfonyl-1-methyl-ethyl)-5-methyl-5,6,8a,9-tetrahydro-8H-7,10-dioxa-2,4,4b-triaza-phenanthren-3-yl]-phenyl}-oxetan-3-ylamine], the IC50 was 500 to 30000 nM.

With `C[C@@H]1COC[C@H]2COc3c(nc(-n4ccc(O)n4)nc3C(C)(C)S(C)(=O)=O)N21` [A82, 1-[(5R,8aS)-1-(1-methanesulfonyl-1-methyl-ethyl)-5-methyl-5,6,8a,9-tetrahydro-8H-7,10-dioxa-2,4,4b-triaza-phenanthren-3-yl]-1H-pyrazol-3-ol], the IC50 fell in the range of 10 to 100 nM.

For the compound `CNc1nc2ccccc2n1-c1nc2c(c(C(C)(C)S(C)(=O)=O)n1)OC[C@H]1COC[C@H](C)N21` [A14, {1-[(5S,8aR)-1-(1-Methanesulfonyl-1-methyl-ethyl)-5-methyl-5,6,8a,9-tetrahydro-8H-7,10-dioxa-2,4,4b-triaza-phenanthren-3-yl]-1H-benzimidazol-2-yl}-methyl-amine], the IC50 fell in the range of 10 to 100 nM.

On to `C[C@@H]1COC[C@H]2COc3c(Cn4nncc4C(=O)O)nc(-c4ccnc5[nH]ccc45)nc3N21` [A2, 3-[(5R,8aS)-5-Methyl-3-(1H-pyrrolo[2,3-b]pyridin-4-yl)-5,6,8a,9-tetrahydro-8H-7,10-dioxa-2,4,4b-triaza-phenanthren-1-ylmethyl]-3H[1,2,3]triazole-4-carboxylic Acid], for which the IC50 lay in the range of 10 to 100 nM.

Take `C[C@@H]1COC[C@H]2COc3c(nc(-n4cc(C(N)=O)cn4)nc3C(C)(C)S(C)(=O)=O)N21` [A68, 1-[(S)-1-(1-methanesulfonyl-1-methyl-ethyl)-5-(R)-methyl-5,6,8a,9-tetrahydro-8H-7,10-dioxa-2,4,4b-triaza-phenanthren-3-yl]-1H-pyrazole-4-carboxylic Acid Amide]: the IC50 fell in the range of 500 to 30000 nM.

For `C[C@@H]1COC[C@H]2COc3c(nc(-c4ccc(CCN)cc4)nc3C(C)(C)S(C)(=O)=O)N21` [A45, 2-{4-[(4bS,6R)-1-(1-methanesulfonyl-1-methyl-ethyl)-5-methyl-5,6,8a,9-tetrahydro-8H-7,10-dioxa-2,4,4b-triaza-phenanthren-3-yl]-phenyl}-ethylamine], the IC50 lay in the range of 10 to 100 nM.

Turning to `C[C@@H]1COC[C@H]2COc3c(nc(NCc4cn[nH]c4)nc3C(C)(C)S(C)(=O)=O)N21` [A65, [(5R,8aS)-1-(1-methanesulfonyl-1-methyl-ethyl)-5-methyl-5,6,8a,9-tetrahydro-8H-7,10-dioxa-2,4,4b-triaza-phenanthren-3-yl]-(1H-pyrazol-4-ylmethyl)-amine], the IC50 was in the range of 500 to 30000 nM.

For the compound `CC(CO)NC(=O)c1nc2c(c(C(C)(C)S(C)(=O)=O)n1)OC[C@@H]1COC[C@@H](C)N21` (stereo partly drawn) [A56, (4bS,6R)-1-(1-methanesulfonyl-1-methyl-ethyl)-5-methyl-5,6,8a,9-tetrahydro-8H-7,10-dioxa-2,4,4b-triaza-phenanthrene-3-carboxylic Acid (2-hydroxy-1-methyl-ethyl)-amide], the half-inhibitory concentration (IC50) was in the range of 500 to 30000 nM.

In the case of `C[C@@H]1COC[C@H]2COc3c(nc(C(=O)N4CC[C@@H](O)C4)nc3C(C)(C)S(C)(=O)=O)N21` [A49, ((R)-3-hydroxy-pyrrolidin-1-yl)-[(4bS,6R)-1-(1-methanesulfonyl-1-methyl-ethyl)-5-methyl-5,6,8a,9-tetrahydro-8H-7,10-dioxa-2,4,4b-triaza-phenanthren-3-yl]-methanone], the IC50 was in the range of 500 to 30000 nM.

Regarding `C[C@H](O)CNC(=O)c1nc2c(c(C(C)(C)S(C)(=O)=O)n1)OC[C@@H]1COC[C@@H](C)N21` [A54, (4bS,6R)-1-(1-methanesulfonyl-1-methyl-ethyl)-5-methyl-5,6,8a,9-tetrahydro-8H-7,10-dioxa-2,4,4b-triaza-phenanthrene-3-carboxylic Acid ((S)-2-hydroxy-propyl)-amide], the IC50 was in the range of 500 to 30000 nM.
